# Values joined by “and” are separate entries in the source; they are usually repeats but may differ in a detail not shown here. Equal entries are not always repeated. Where two headings read alike, the source gives them in different places. Marks after values point to notes of the source that are not given here.
# Experiments:
# [1] = molecular target: T1, human calcium-independent GVIA iPLA2 (Homo sapiens, UniProt O60733); assay: radioactivity-based mixed micelle assay, GVIA iPLA2; type: biochemical
# T1 sequence (O60733 1-806): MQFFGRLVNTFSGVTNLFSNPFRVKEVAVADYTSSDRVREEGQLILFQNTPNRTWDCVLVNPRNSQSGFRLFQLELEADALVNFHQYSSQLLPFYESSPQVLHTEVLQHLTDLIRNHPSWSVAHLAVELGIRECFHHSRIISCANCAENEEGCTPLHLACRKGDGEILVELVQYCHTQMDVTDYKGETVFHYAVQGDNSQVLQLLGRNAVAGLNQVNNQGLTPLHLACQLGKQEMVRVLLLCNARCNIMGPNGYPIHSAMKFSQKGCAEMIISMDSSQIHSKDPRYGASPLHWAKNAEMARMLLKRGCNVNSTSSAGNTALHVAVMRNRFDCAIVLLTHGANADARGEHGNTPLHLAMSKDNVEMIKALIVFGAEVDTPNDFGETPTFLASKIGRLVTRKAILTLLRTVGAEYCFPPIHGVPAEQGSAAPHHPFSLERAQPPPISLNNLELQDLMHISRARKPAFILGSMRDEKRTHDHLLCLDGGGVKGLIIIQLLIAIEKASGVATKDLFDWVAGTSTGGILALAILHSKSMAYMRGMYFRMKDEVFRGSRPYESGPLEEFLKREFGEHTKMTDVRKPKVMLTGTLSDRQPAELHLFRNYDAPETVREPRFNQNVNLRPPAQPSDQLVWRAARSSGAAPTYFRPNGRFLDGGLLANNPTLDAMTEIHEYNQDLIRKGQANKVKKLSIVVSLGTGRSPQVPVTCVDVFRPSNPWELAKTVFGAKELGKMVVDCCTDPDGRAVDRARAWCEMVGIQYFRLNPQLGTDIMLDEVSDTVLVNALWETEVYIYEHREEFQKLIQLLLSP
# Protocol: All synthesized thiazolyl ketones were tested for their in vitro inhibitory activity on recombinant human cPLA2α and selectivity over human calcium-independent GVIA iPLA2 and secreted GV sPLA2 using our previously described group-specific radioactivity-based mixed micelle assays. The inhibition results are presented either as per cent inhibition or as XI(50) values in Table 1. […] The XI(50) is defined as the mole fraction of the inhibitor in the total substrate interface required to inhibit the enzyme activity by 50%. For comparison purposes, previously published data for the inhibitor GK470[19] are included. […] Inhibitors were initially screened at 0.091 mol fraction (5 μL of 5 mM inhibitor in DMSO) in substrate (495 μL) in technical triplicates. […] The XI(50) value and stdev values reported are for the entire curve. This analysis was performed in GraphPad Prism v6.
# [2] = stability in human plasma (LC-MS/MS); type: in vitro ADME; conditions: for Stability in human plasma 4 h: % of the compound remaining after 4 h
# Protocol: The stability of the analogs in human plasma was studied over approximately 24 h by LC-MS/MS and the results at 4 h and the final timepoint (20–25 h) are included in Table 1.
# The metabolic stability of the compounds was determined through in vitro stability assays in human plasma. Solutions of compounds in DMSO (20 mM) were diluted to 5 μg/mL in 50% methanol for infusion into the MS/MS system and spiking of calibration standards and control samples. For the MS detection, positive ionization in ESI mode was used. Good sensitivity, retention and peak shaped were achieved using a gradient with 5 mM ammonium carbamate in water and ammonium carbamate in 90% acetonitrile on a reversed phase column (ACE3AQ). Calibration standards were spiked in a calibration range of 0.5–100 ng/ml. Control samples were spiked at, low, medium, and high concentration levels. The spiked plasma samples were prepared by protein precipitation using acetonitrile containing appropriate internal standard (IS). […] Samples were prepared for analysis by taking 50 μL of plasma sample and adding 100 μL of IS working solution in acetonitrile followed by vortexing at 2500 rpm (Multi-tube vortexer DVX-2500, Henry Troemner LLC, USA) for 2 min. The samples were centrifuged at 5300 rpm (Heraeus Megafuge 1.0 Heraeus, Germany) for 3 min and the supernatant transferred to the autosampler. Recovery was determined by comparing the prepared matrix samples (protein precipitation) with a direct sample (analytes spikes in 67% acetonitrile = injection solution) such that the recovery of the sample preparation and the matrix effects were determined together. Two or three samples were each measured in technical triplicates to give the final % recovery.
# SW982 synoviocytes = assay: cellular arachidonic acid (AA) release assay, IL-1β stimulated; type: cell-based, human; conditions: for EC50 / IC50: SW982; for IC50: concentration in µM, read-out: logEC50 best-fit value, AA release (converted); for inhibition at 5 µM: SW982, 5 µM
# Description: To test the inhibitory activity of the compounds in cells, we measured their effect on the release of AA from synoviocytes stimulated with IL-1β (Table 2). […] Combined with favorable selectivity and stability it was thus chosen for further evaluation. We looked specifically at how it modulated eicosanoid levels in response to stimulation both in whole blood and in isolated peripheral blood mononuclear cells (PBMCs) and checked for off-target effects on AA metabolism in whole blood by also measuring the effect of GK420 on eicosanoid release in the presence of exogenous free AA.
# The human synovial sarcoma cell line SW982 (ATCC, London, UK) was used to measure AA release. The cells were maintained in Dulbecco’s Modified Eagle Medium (DMEM) supplemented with 10% FBS, 0.1 mg/mL gentamicin, and 0.3 mg/mL L-glutamine at 37 °C with 10% CO2, and experiments were performed at 3 days post-confluence. To measure AA release, the cells were labeled overnight with ^3H-AA (0.4 μCi/mL) in serum-free DMEM and then washed twice with PBS containing fBSA (2 mg/mL) to remove unincorporated radioactivity. The inhibitors, or DMSO vehicle control, were subsequently added to the cells for 1 hour prior to stimulation with 10 ng/mL IL-1β for 4 h. Supernatants were collected and centrifuged at 300 × g for 5 min to clear them of detached cells and adherent cells were dissolved in 1 N NaOH. The ^3H-AA was assessed by liquid scintillation counting (LS 6500 Multi-Purpose Scintillation Counter, Beckman Coulter, Inc., USA) and the results are given as the inhibition of released ^3H-AA in the supernatants relative to total ^3H-AA incorporated into the cells, as described. EC50 values were calculated by fitting the % inhibition data to a three-parameter dose-response curve in GraphPad prism v10.4.0. Experiments were performed in technical triplicates and repeated at least three times.
# [3] = 0.091 mole fraction, read-out: GVIA iPLA2 % Inhib
# [4] = average of triplicates, read-out: iPLA2 % inhibition at 0.091 mole fraction, average
# [5] = individual technical replicate, read-out: iPLA2 % inhibition at 0.091 mole fraction
# [6] = % of the compound remaining after 20 h
# [7] = individual sample, human plasma
# [8] = 0.2 µM, individual biological replicate
# [9] = 1 µM, individual biological replicate
# [10] = 5 µM, individual biological replicate
# [11] = Homo sapiens, SW982, 4 h, 1 µM inhibitor, IL-1β 4 h, mean ± stdev, read-out: AA release % Inhib
# [12] = Homo sapiens, IL-1β 4 h, 0.2, 1 or 5 µM inhibitor, read-out: AA release EC50 µM (95% CI)
# [13] = Homo sapiens, [Agonist] vs. Response (three parameters)
# [14] = Homo sapiens, [Agonist] vs. Response (three parameters), read-out: EC50 best-fit value, AA release
# [15] = Homo sapiens, SW982, 1 µM, individual biological replicate, read-out: % inhibition of stimulated AA release
# [16] = Homo sapiens, individual biological replicate
Compound,"inhibition at 0.091 mole fraction [1, 3] [%]","inhibition at 0.091 mole fraction [1, 4] [%]","inhibition at 0.091 mole fraction [1, 5] [%]",Stability in human plasma 4 h [2] [%],"Stability in human plasma 20+ h [2, 6] [%]","plasma stability 4h (%) [2, 7]","plasma stability 20h (%) [2, 7]",% inhibition of stimulated AA release (SW982 synoviocytes; [8]),% inhibition of stimulated AA release (SW982 synoviocytes; [9]),% inhibition of stimulated AA release (SW982 synoviocytes; [10]),inhibition at 1 µM (SW982 synoviocytes; [11]) [%],EC50 (SW982 synoviocytes; [12]) [µM],IC50 (SW982 synoviocytes; [13]) [µM],EC50 (SW982 synoviocytes; [14]) [µM],inhibition at 1 µM (SW982 synoviocytes; [15]) [%],inhibition at 5 µM (SW982 synoviocytes; [16]) [%],further results
CCCCCCOc1ccc(SCC(=O)c2nc(C(=O)OC)cs2)cc1 [GK419],0,0,0,82,52.7,82.6% and 81.4%,53.1% and 52.3%,23.74% and 36.06% and 29.89% and 8.79%,51.4% and 93.19% and 85.38% and 54.33%,98.65% and 99.61% and 98.35% and 63.6%,71 ± 21,0.5,0.495,0.495,–,–,–
CCCCCCCCc1ccc(OC(C)C(=O)c2nc(C(=O)OC)cs2)cc1 (stereo not drawn) [GK402],61,60.8,59.9,79.7,–,79.3% and 79.5% and 80.3%,–,6.56% and 7.69% and 18.19%,17.63% and 31.62%,31.01% and 44.57%,23 ± 8,6.7,6.7,6.7,18.5,36.7,"Stability in human plasma 20+ h ([2]; % of the compound remaining after 25 h (¤)): 47.3¤ %; plasma stability 25h (%) [2, 7]: 47% and 46% and 48.8%"
COC(=O)c1csc(C(=O)C(C)Oc2ccc(Oc3ccccc3)cc2)n1 (stereo not drawn) [GK428],54,53.6,54.3,35.9,1.65,36.5% and 35.3%,2.1% and 1.2%,5.86% and -31.46% and 2.89% and 15.93%,17.3% and 4.11% and 8.14% and 18.84%,51.1% and 33.6% and 14.73% and 37.63%,12 ± 7,9.34,9.34,9.34,–,–,–
CCCCCCSc1ccc(OCC(=O)c2nc(C(=O)OC)cs2)cc1 [GK427],7.5,7.5,–,61.3,8.05,59% and 63.5%,0% and 16.1%,24.46% and 29.82% and 29.25%,49.86% and 62.69%,90.15% and 92.25% and 90.43%,56 ± 5,0.67,0.671,0.671,55.8,84,"inhibition at 0.2 µM (SW982 synoviocytes; Homo sapiens, SW982, 0.2 µM, individual biological replicate): 26.4%"
CCCCCCCOc1ccc(OC(C)C(=O)c2nc(C(=O)OC)cs2)cc1 (stereo not drawn) [GK439],67,66.9,68.3,59.9,–,55.1% and 64.7%,–,39.77% and 13.25% and 29.88% and 48.17%,95.13% and 73.24% and 73.33% and 76.5%,98.88% and 99.59% and 96.75%,80 ± 10,0.32,0.325,0.325,–,116,"Stability in human plasma 20+ h ([2]; % of the compound remaining after 24 h 39 min (*)): 12.8* %; plasma stability 24h39min (%) [2, 7]: 10.7% and 14.8%"
